# Values joined by “and” are separate entries in the source; they are usually repeats but may differ in a detail not shown here. Equal entries are not always repeated. Where two headings read alike, the source gives them in different places.
# What was measured:
# [1] = tested on: CCI of the sciatic nerve (mechano-allodynia); assay: CCI model of neuropathic pain, mechano-allodynia (von Frey PWT); type: in vivo, mice; details: for effect of antagonist pretreatment on anti-allodynic effect of CI-IB-MECA or MRS1898: 15 min before CI-IB-MECA 0.6 or MRS1898 0.5 μmol/kg, DPCPX and SCH-442416 with MRS1898 only; for effect of antagonist pretreatment on anti-allodynic effect of IB-MECA: 15 min before IB-MECA 0.5 μmol/kg, MRS1523 5, DPCPX 2, SCH-442416 0.2 μmol/kg; for effect of antagonist given alone on ipsilateral or contralateral PWT: MRS1523 5, DPCPX 2, SCH-442416 0.2, naloxone 25 μmol/kg; for efficacy of IB-MECA compared with this drug: D7, time of peak reversal (FIG. 7); for ED50: Mus musculus, read-out: ED50, reversal of mechano-allodynia; for time of maximal reversal of mechano-allodynia: after single administration on D7; for ED50 at peak reversal of mechano-allodynia when combined with IB-MECA: co-administered with IB-MECA 0.2 μmol/kg; for fold less potent than IB-MECA in reversing mechano-allodynia: ratio of ED50 values, D7, time of peak reversal; for reversal of mechano-allodynia in ipsilateral paws: single dose D7, IB-MECA 0.2-2, CI-IB-MECA 0.6, MRS1898 0.5 μmol/kg i.p., morphine 0.11-35 s.c., gabapentin 18-584 i.p., amitriptyline 3-191 μmol/kg oral
# Protocol: CCI model of neuropathic pain. CCI to the sciatic nerve of the left hind leg in mice was performed under general anaesthesia using the well-characterized Bennett model. Briefly, mice (weighing 25-30 g at the time of surgery) were anesthetized with 3% isoflurane/100% O2 inhalation and maintained on 2% isoflurane/100% O2 for the duration of surgery. The left thigh was shaved, scrubbed with Nolvasan® and a small incision (1-1.5 cm in length) was made in the middle of the lateral aspect of the left thigh to expose the sciatic nerve. The nerve was loosely ligated around the entire diameter of the nerve at three distinct sites (spaced 1 mm apart) using silk sutures (6.0). The surgical site was closed with a single muscle suture and a skin clip. Pilot studies established that under our experimental conditions peak mechano-allodynia develops by day 5-day 7 (D5-D7) following CCI. Test substances or their vehicles were given subcutaneously (s.c.), intraperitoneally (i.p.) or orally by gavage (0.1 ml) at peak mechano-allodynia (D7).
# Behavioral testing. […] The plantar aspect of hindpaws were probed three times with calibrated von Frey filaments (Stoelting, mice: 0.07-2.00 grams; rats: 0.407-26 grams) according to the “up-and-down” method. […] Briefly, each rat was placed in a Plexiglas chamber (28×40×35-cm, wire mesh floor) and after its acclimation, a servo-controlled mechanical stimulus was applied to the plantar surface that exerted a progressively increasing punctate pressure up to 50 grams within 10 seconds. Mechanical threshold was assessed three times at each time point to yield a mean value, reported as PWT (grams). […] Mechano-hyperalgesia was assessed in rats by the Randall and Sellitto paw pressure test using an analgesiometer (Ugo Basile). The nociceptive threshold was defined as the force (grams) at which the rat withdrew its paw (cut off set at 250 grams).
# Determining ED50 values. Dose response data were curve-fitted using the least sum of square method by a normalized 4-parameter, variable slope non-linear analysis of the % Reversal of Mechano-allodynia in CCI and % Prevention of Mechano-allodynia or Mechano-hyperalgesia in CIPN using GraphPad Prism (Release 5.03, GraphPad Software, Inc.) from which the ED50 was determined and reported with the 95% confidence interval (95% CI). In the CCI model, the % Reversal of Mechano-allodynia=(PWT1h−PWTD7)/(PWTD0−PWTD7)×100, where PWTD0=Paw Withdrawal Threshold (g) at D0, PWT1h=Paw Withdrawal Threshold (g) at 1 hour after the administration of IB-MECA, gabapentin, amitriptyline, or combinations of IB-MECA with gabapentin or amitriptyline, and PWTD7=Paw Withdrawal Threshold (grams) at D7 prior to drug administration.
# Statistical Analysis. Data are expressed as mean±SD for n animals. Behavioral data were analyzed by two-way repeated measures ANOVA with Bonferroni comparisons (full time course studies) or one-way ANOVA Dunnett's comparisons (1 hour behavioral data). The dose response curves were compared to a globally fitted curve using the extra sum-of-squares F-test comparisons to determine whether the data represented distinct curves between treatments. Significant differences were defined at a P<0.05. All statistical analysis was performed using GraphPad Prism (v5.03, GraphPad Software, Inc.).
# [2] = cited from earlier work
# [3] = tested on: acute nociception (tail flick latency); assay: Tail flick assay for acute nociception; type: in vivo, mice; details: IB-MECA, MRS1898 0.5 μmol/kg i.p. at 30, 60, 120 minutes; morphine 35 μmol/kg s.c. positive control
# Protocol: Tail flick and hot plate assay in mice for acute nociception. The tail flick test, which measures latency(s) of tail withdrawal from a noxious radiant heat source (Ugo Basile; model number 37360) was used to measure thermal nociceptive sensitivity in mice with baseline latencies of 3-5 seconds and a cut-off time of 15 seconds to prevent tissue injury. Tail flick latencies were taken before and at 30, 60 and 120 minutes after i.p. injection of IB-MECA, MRS1898 (0.5 μmol/kg) or its vehicle (0.1% DMSO in saline). For the hot plate test, nociceptive thresholds were determined as previously reported by our group by measuring latencies (in seconds) of mice placed in a transparent glass cylinder on a hot plate maintained at 52° C.. Responses indicative of nociception included intermittent lifting and/or licking of the hindpaws or escape behavior. Hot plate latencies were taken in mice from all groups before and after drug administration. A cut-off latency of 15 seconds was employed to prevent tissue damage.
# [4] = tested on: paclitaxel-induced neuropathic pain; assay: Paclitaxel-induced neuropathic pain (mechano-allodynia, mechano-hyperalgesia); type: in vivo, rats
# [5] = tested on: A3ARs; details: cited from earlier work
# [6] = tested on: SKBR3 breast cancer cells; assay: MTT cell survival assay, SKBR3; type: cell-based, human; details: 48 hours, MTT, SKBR3
# Protocol: Cells were cultured and assayed in DMEM (SKBR3; human breast cancer cells), L15 (SW480; human colon cancer cells) or RPMI […] (RPMI 8226; human multiple myeloma cells) supplemented with heat-denatured 10% FBS and penicillin/streptomycin at 37° C., 0% (SW480) or 5% CO2 (SKBR3 and RPMI 8226), 95% humidity. The antitumor activities of these agents were measured in cells (6.25×10^4 cells/well) cultured overnight in 24-well plates (SKBR3 and SW480; BD Biosciences) or 12 mm×7.5 mm culture tubes (RPMI 8226; BD Biosciences) in complete media. […] Two naïve control wells were included as a control for 100% survival. Cell survival was determined using a MTT (3-(4,5-dimethylthiazol-2-yl)-2,5-diphenyltetrazolium bromide) assay adapted from a previously described assay. Cells were incubated with MTT (500 μg/ml) for 75 minutes at 37° C., 0% or 5% CO2, 95% humidity, removing the media and dissolving the tetrazolium crystals in isopropanol. […] The antitumor effects of IB-MECA alone were determined as % Survivability=(A560-570 nm of chemotherapeutic vehicle+IB-MECA)/(mean A560-570 nm of the naïve control wells)×100. The LD50 of each chemotherapeutic agent+IB-MECA or its vehicle was calculated using three-parameter non-linear analysis using % Survivability=(A560-570 nm of chemotherapeutic+IB-MECA or its vehicle)/(mean A560-570 nm chemotherapeutic vehicle+vehicle of IB-MECA)×100. The top and bottom plateaus were constrained using GraphPad Prism v5.03 (GraphPad Software, Inc.).
# [7] = co-administered IB-MECA 0.2 μmol/kg, D7
structure (smiles),measurement,setting,value
"CCCn1c(=O)c2[nH]c(C3CCCC3)nc2n(CCC)c1=O [DPCPX, 8-cyclopentyl-1,3-dipropylxanthine]",effect of antagonist pretreatment on anti-allodynic effect of CI-IB-MECA or MRS1898,[1],did not prevent
same,effect of antagonist pretreatment on anti-allodynic effect of IB-MECA,[1],not affected
same,effect of antagonist given alone on ipsilateral or contralateral PWT,[1]; D7,lacked effect
CC(=O)O[C@@]12CO[C@@H]1C[C@H](O)[C@@]1(C)C(=O)[C@H](O)C3=C(C)[C@@H](OC(=O)[C@H](O)[C@@H](NC(=O)OC(C)(C)C)c4ccccc4)C[C@@](O)([C@@H](OC(=O)c4ccccc4)[C@H]21)C3(C)C [docetaxel],incidence of CIPN,[2]; subjects receiving the drug,60%
CN1CC[C@]23c4c5ccc(O)c4O[C@H]2[C@@H](O)C=C[C@H]3[C@H]1C5 [morphine],efficacy of IB-MECA compared with this drug,[1],more efficacious
same,effect on PWT in contralateral paws,"[1]; D7 after CCI, drug alone",not in contralateral paws
same,ED50,[1],2.1 µmol/kg
same,time of maximal reversal of mechano-allodynia,[1],0.5 h
same,enhancement of efficacy by IB-MECA,[1]; [7],1.6 fold
same,increase of potency by IB-MECA,[1]; [7],> 2 fold
same,"Emax, reversal of mechano-allodynia","[1]; mice, D7 after CCI, drug alone",62±3%
same,ED50 at peak reversal of mechano-allodynia when combined with IB-MECA,"[1]; mice, D7 after CCI",0.98 µmol/kg
same,fold less potent than IB-MECA in reversing mechano-allodynia,[1],> 5 fold and 5 fold
same,reversal of mechano-allodynia in ipsilateral paws,[1],dose-dependent reversal of mechano-allodynia
same,effect on tail flick latency,[3],significant (P<0.001) increase in tail flick latencies
N.N.[Cl][Pt][Cl] [cisplatin],incidence of CIPN,[2]; in vivo,70-90%
N.N.O=C([O-])C1(C(=O)[O-])CCC1.[Pt+2] [carboplatin],incidence of CIPN,[2]; subjects receiving the drug,40%
C=CCN1CC[C@]23c4c5ccc(O)c4O[C@H]2C(=O)CC[C@@]3(O)[C@H]1C5 [naloxone],effect of antagonist given alone on ipsilateral or contralateral PWT,[1]; D7,did not affect
same,effect of naloxone on reversal of mechano-allodynia by A3AR agonists,[1]; naloxone 25 μmol/kg i.p. 15 minutes before IB-MECA or MRS1898 0.5 μmol/kg,did not interfere
"CNC(=O)[C@H]1O[C@@H](n2cnc3c(NCc4cccc(I)c4)nc(Cl)nc32)[C@H](O)[C@@H]1O [CI-IB-MECA, 2-chloro-N^6-(3-iodobenzyl)-adenosine-5′-N-methyluronamide]",effect on PWT in contralateral paws,"[1]; D7 after CCI, drug alone",had no effect
same,reversal of mechano-allodynia in ipsilateral paws,[1],reversed mechano-allodynia
same,effect on paclitaxel-induced neuropathic pain,[4]; 0.2 μmol/kg/d (not shown),completely blocked
CN(C)CCC=C1c2ccccc2CCc2ccccc21 [amitriptyline],efficacy of IB-MECA compared with this drug,[1],equiefficacious
same,effect on PWT in contralateral paws,"[1]; D7 after CCI, drug alone",had no effect
same,ED50,[1],31 µmol/kg
same,time of maximal reversal of mechano-allodynia,[1],1 h
same,increase of potency by IB-MECA,[1]; [7],2 fold
same,ED50 at peak reversal of mechano-allodynia when combined with IB-MECA,"[1]; mice, D7 after CCI",13 µmol/kg
same,fold less potent than IB-MECA in reversing mechano-allodynia,[1],> 75 fold and 75 fold
same,reversal of mechano-allodynia in ipsilateral paws,[1],dose-dependent reversal of mechano-allodynia
"COc1ccc(CCCn2ncc3c2nc(N)n2nc(-c4ccco4)nc32)cc1 [SCH-442416, 2-(2-furanyl)-7-[3-(4-methoxyphenyl)propyl]-7Hpyrazolo[4,3-e][1,2,4]triazolo[1,5-C]pyrimidin-5-amine]",effect of antagonist pretreatment on anti-allodynic effect of CI-IB-MECA or MRS1898,[1],did not prevent
same,effect of antagonist pretreatment on anti-allodynic effect of IB-MECA,[1],not affected
same,effect of antagonist given alone on ipsilateral or contralateral PWT,[1]; D7,lacked effect
"CCCOC(=O)c1c(-c2ccccc2)nc(CC)c(C(=O)SCC)c1CCC [MRS1523, 3-propyl-6-ethyl-5[(ethylthio)carbonyl]-2-phenyl-4-propyl-3-pyridine-carboxylate]",effect of antagonist pretreatment on anti-allodynic effect of CI-IB-MECA or MRS1898,[1],blocked
same,effect of antagonist pretreatment on anti-allodynic effect of IB-MECA,[1],prevented
same,effect of antagonist given alone on ipsilateral or contralateral PWT,[1]; D7,lacked effect
same,effect on PWT when administered alone (vehicle groups),"[4]; IB-MECA 0.2 μmol/kg/d in any of the chemotherapy models, MRS1523 5 μmol/kg/d",lacked effect
same,effect of co-administered antagonist on the effects of IB-MECA,[4]; MRS1523 5 μmol/kg/d with IB-MECA 0.2 μmol/kg/d,prevented
same,selectivity against A1AR,[5],moderate selectivity
same,selectivity against A2AAR and A2BAR,[5],at least 1000 fold
same,binding to A3ARs,[5]; murine and rat,high affinity
CC(=O)O[C@H]1C(=O)[C@@]2(C)[C@H]([C@H](OC(=O)c3ccccc3)[C@]3(O)C[C@H](OC(=O)[C@H](O)[C@@H](NC(=O)c4ccccc4)c4ccccc4)C(C)=C1C3(C)C)[C@]1(OC(C)=O)CO[C@@H]1C[C@@H]2O [Paclitaxel],LD50,[6],7.0 nM
"NCC1(CC(=O)O)CCCCC1 [gabapentin, 2-[1-(aminomethyl)cyclohexyl]acetic acid]",efficacy of IB-MECA compared with this drug,[1],equiefficacious
same,effect on PWT in contralateral paws,"[1]; D7 after CCI, drug alone",had no effect
same,ED50,[1],140 µmol/kg
same,time of maximal reversal of mechano-allodynia,[1],1 h
same,increase of potency by IB-MECA,[1]; [7],> 5 fold
same,ED50 at peak reversal of mechano-allodynia when combined with IB-MECA,"[1]; mice, D7 after CCI",27 µmol/kg
same,fold less potent than IB-MECA in reversing mechano-allodynia,[1],> 350 fold
same,reversal of mechano-allodynia in ipsilateral paws,[1],dose-dependent reversal of mechano-allodynia
